Structures can show the parent of a compound that is named as a salt. Where two headings read alike, the source gives them in different places.
What was measured:
HO-2 (rat brain) = molecular target: T1, HO-2 (rat brain) (Rattus norvegicus, UniProt P23711); experiment: HO enzymatic activity, rat brain microsomal fraction (CO formation from methemalbumin); assay type: biochemical
T1 construct: brain microsomes were used as a source of HO-2; from tissue; host or cells: brain microsomal fraction of adult male Sprague-Dawley rats
T1 sequence (P23711 1-315): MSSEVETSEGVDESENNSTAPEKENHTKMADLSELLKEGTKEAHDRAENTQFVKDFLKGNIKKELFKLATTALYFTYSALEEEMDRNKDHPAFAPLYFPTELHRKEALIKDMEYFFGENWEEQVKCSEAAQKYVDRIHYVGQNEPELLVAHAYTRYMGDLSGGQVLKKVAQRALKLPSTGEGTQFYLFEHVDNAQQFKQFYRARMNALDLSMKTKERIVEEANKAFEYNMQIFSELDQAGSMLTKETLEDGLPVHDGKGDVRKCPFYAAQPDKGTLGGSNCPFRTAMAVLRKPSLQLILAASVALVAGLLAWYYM
Experimental: (§1) Incubations for HO activity analysis were done under conditions for which the rate of CO formation (pmol CO×min^−1×mg protein^−1) was linear with respect to time and microsomal protein concentration. Briefly, reaction mixtures (150 μL) consisting of 100 mM phosphate buffer (pH 7.4), 50 μM methemalbumin, and 1 mg/mL protein were pre-incubated with the inhibitors at final concentrations ranging from 0.1-100 μM for 10 minutes at 37° C. Reactions were initiated by adding NADPH at a final concentration of 1 mM and incubations were performed for an additional 15 minutes at 37° C.
(§2) Incubations for HO activity analysis were done under conditions for which the rate of CO formation (pmol CO/mg protein/minute) was linear with respect to time and microsomal protein concentration. Briefly, reaction mixtures (150 μL) consisting of 100 mM phosphate buffer (pH 7.4), 50 μM methemalbumin and 1 mg/mL protein were pre-incubated with the vehicle (ethanol or water in which the inhibitors were dissolved), or inhibitors at final concentrations ranging from 0.1-1000 μM for 10 minutes at 37° C. Reactions were initiated by adding β-NADPH at a final concentration of 1 mM and incubations were carried out for an additional 15 minutes at 37° C. Reactions were stopped by instantly freezing the reaction mixture on pulverized dry ice and CO formation was measured by gas chromatography using a TA 3000R Process Gas Analyzer (Trace Analytical/Ametek, Newark, Del., USA).
(§3) The values on the abscissa represent the decimal logarithm of the inhibitor's concentration (in μM), whereas the values of the activity on the ordinate are expressed as a percentage of the control experiments without inhibitor.
(§4) The IC50 values for the replicate experiments were employed to generate the reported standard deviation value.

HO-1 (rat spleen) = molecular target: T2, HO-1 (rat spleen) (Rattus norvegicus, UniProt P06762); experiment: HO enzymatic activity, rat spleen microsomal fraction (CO formation from methemalbumin); assay type: biochemical
T2 construct: Spleen microsomes were used as a source of HO-1; from tissue; host or cells: spleen microsomal fraction of adult male Sprague-Dawley rats
T2 sequence (P06762 1-289): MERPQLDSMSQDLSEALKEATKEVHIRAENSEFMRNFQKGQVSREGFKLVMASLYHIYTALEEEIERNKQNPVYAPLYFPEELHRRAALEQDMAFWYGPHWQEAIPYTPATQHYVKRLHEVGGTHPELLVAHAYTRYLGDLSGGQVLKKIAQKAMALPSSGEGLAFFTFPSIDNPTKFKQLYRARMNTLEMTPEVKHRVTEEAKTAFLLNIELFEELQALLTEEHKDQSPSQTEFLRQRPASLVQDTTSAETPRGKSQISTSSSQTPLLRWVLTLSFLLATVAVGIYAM
Experimental: as §1, §2, §3, §4

[1] = IC50 HO-2 (rat brain)/μM), CO formation from methemalbumin, mean ± SD of replicate experiments
[2] = IC50 HO-1 (rat spleen/μM), CO formation from methemalbumin, mean ± SD of replicate experiments
[3] = CO formation from methemalbumin, mean ± SD of replicate experiments, read-out: IC50 HO-1 (rat spleen/μM)
[4] = CO formation from methemalbumin, mean ± SD of replicate experiments, read-out: IC50 HO-2 (rat brain)/μM)
[5] = IC50 HO-2 (rat brain)/μM), average ± SD of replicate experiments

O=C(CCc1ccc(Br)cc1)Cn1ccnc1 [QC-53, 4-(4-Bromophenyl)-1-(1H-imidazol-1-yl)-2-butanone hydrochloride]
IC50 (HO-2 (rat brain); [1]): 10 ± 5 µM

O=C(CCc1ccc(F)cc1)Cn1ccnc1 [QC-54, 4-(4-Fluorophenyl)-1-(1H-imidazol-1-yl)-2-butanone hydrochloride]
IC50 (HO-2 (rat brain); [1]): 2 ± 0.2 µM

Fc1ccc(CCC2(Cn3ccnc3)OCCO2)cc1 [QC-55, 1-((2-(2-(4-Fluorophenyl)ethyl)-1,3-dioxolan-2-yl)methyl)-1H-imidazole hydrochloride]
IC50 (HO-1 (rat spleen); [2]): 4 ± 1 µM

O=C(CBr)CCc1ccc(Br)cc1 [QC-59, 1-bromo-4-(4-bromophenyl)butan-2-one]
IC50 (HO-1 (rat spleen); [3]): 42 ± 5 µM | IC50 (HO-2 (rat brain); [4]): 125 ± 22 µM

Cc1nccn1CC(=O)CCc1ccc(Br)cc1 [QC-61, 4-(4-bromophenyl)-1-[(2-methyl)-1H-imidazol-1-yl]butan-2-one hydrochloride]
IC50 (HO-1 (rat spleen); [2]): > 100 µM | IC50 (HO-2 (rat brain); [1]): > 100 µM

O=C(CCc1ccc(Br)cc1)Cn1cnc2ccccc21 [QC-62, 4-(4-bromophenyl)-1-(1H-benzimidazol-1-yl)butan-2-one hydrochloride]
IC50 (HO-1 (rat spleen); [2]): > 100 µM | IC50 (HO-2 (rat brain); [1]): > 100 µM

O=C(Cn1ccnc1)NCc1ccccc1 [QC-63, N-benzyl-2-(1H-imidazol-1-yl)-acetamide hydrochloride]
IC50 (HO-1 (rat spleen); [3]): 12 ± 5 µM | IC50 (HO-2 (rat brain); [1]): > 100 µM

O=C(CCc1ccc(Br)cc1)Cn1cncn1 [QC-64, 4-(4-bromophenyl)-1-[1,2,4]triazol-1-yl-butan-2-one hydrochloride]
IC50 (HO-2 (rat brain); [1]): 3 ± 2 µM

O=C(CCc1ccccc1)Cn1cncn1 [QC-86, 4-phenyl-1-[1,2,4]triazol-1-yl-butan-2-one hydrochloride]
IC50 (HO-2 (rat brain); [4]): 34 ± 3 µM

O=C(CCc1ccccc1)Cn1cccn1 [QC-87, 4-phenyl-1-pyrazol-1-yl-butan-2-one hydrochloride]
IC50 (HO-1 (rat spleen); [2]): > 100 µM

OC(Cn1cncn1)(Cn1cncn1)c1ccc(F)cc1F [QC-90, Fluconazole, reference compound]
IC50 (HO-2 (rat brain); [4]): > 100 µM

O=C(CCc1ccccc1)Cn1ccnn1 [QC-91, 4-phenyl-1-(1H-[1,2,3]triazol-1-yl)butan-2-one]
IC50 (HO-1 (rat spleen); [3]): 89 ± 1 µM

O=C(CCc1ccccc1)Cn1nccn1 [QC-101, 4-phenyl-1-[1,2,3]triazol-2-yl-butan-2-one]
IC50 (HO-1 (rat spleen); [3]): > 100 µM

c1ccc(CCC2(Cn3cncn3)OCCO2)cc1 [QC-104, 2-(2-phenethyl)-2-{(1H-[1,2,4]triazol-1-yl)methyl}-1,3-dioxolane hydrochloride]
IC50 (HO-1 (rat spleen); [3]): 14 ± 3 µM

Cl.Clc1ccc(CC[C@@]2(Cn3ccnc3)OC[C@@H](COc3ccc(-c4ccccc4)cc3)O2)cc1 [QC-129, (2R,4S)-1-{4-Biphenyl-4-yloxymethyl)-2-[2-(4-chlorophenyl)ethyl]-[1,3]dioxolan-2-ylmethyl}-1H-imidazole hydrochloride]
IC50 (HO-2 (rat brain); [4]): 43 ± 3 µM

CC(C)(C(=O)c1ccccc1)n1ccnc1 [QC-187, 2-Imidazol-1-yl-2-methyl-1-phenyl-propan-1-one]
IC50 (HO-1 (rat spleen); IC50 HO-1 (rat spleen/μM), average ± SD of replicate experiments): > 100 µM

O=C(Cn1ccnc1)c1ccc(Cl)c(Cl)c1 [QC-189, 1-(3,4-Dichlorophenyl)-2-imidazol-1-yl-ethanone]
IC50 (HO-2 (rat brain); [5]): 4.7 ± 0.7 µM

O=C(/C=C/c1ccccc1)CCn1ccnc1 [QC-223, 5-(1H-Imidazol-1-yl)-1-phenyl-pent-1-en-3-one hydrochloride]
IC50 (HO-2 (rat brain); [5]): 31 ± 12 µM

— patent publication US20120020915A1, “Compounds and Methods for Treating Cancer and Diseases of the Central Nervous System” (QUEENS UNIVERSITY AT KINGSTON, priority 2007, published 2012)
